Data from the supplement of paper PMC10307832.

Assays:
Assay in all cases: relative viability (nuclei count vs DMSO), 5 days (fraction); higher = more cells survive
[1] = compound: CN(C)C[C@@H]1CCn2cc(c3ccccc32)C2=C(C(=O)NC2=O)c2cn(c3ccccc23)CCO1 [Ruboxistaurin] + CC(=O)Nc1cccc(-n2c(=O)n(C3CC3)c(=O)c3c(Nc4ccc(I)cc4F)n(C)c(=O)c(C)c32)c1 [Trametinib] (partner 0.02 µM)
How it was run: (§1)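 Lung cancer cell lines in 1536-well plates got either a single drug or a fixed anchor-drug dose together with five library-drug doses (not always all listed) in √10 steps, by pin tool, on the day after seeding. Nuclei were counted after 5 days, and relative viability is the treated-to-vehicle ratio of nuclei counts. Values are medians of duplicate plates.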

[2] = compound: CN(C)C[C@@H]1CCn2cc(c3ccccc32)C2=C(C(=O)NC2=O)c2cn(c3ccccc23)CCO1 [Ruboxistaurin] + CC1(C)CCC(c2ccc(Cl)cc2)=C(CN2CCN(c3ccc(C(=O)NS(=O)(=O)c4ccc(N[C@H](CCN5CCOCC5)CSc5ccccc5)c(S(=O)(=O)C(F)(F)F)c4)cc3)CC2)C1 [Navitoclax] (partner 0.5 µM)
How it was run: as §1

[3] = compound: CN(C)C[C@@H]1CCn2cc(c3ccccc32)C2=C(C(=O)NC2=O)c2cn(c3ccccc23)CCO1 [Ruboxistaurin] + COc1cccc2cc(-c3nc([C@H]4CC[C@H](C(=O)O)CC4)n4ncnc(N)c34)[nH]c12 [OSI-027] (partner 0.5 µM)
How it was run: as §1

[4] = compound: CN(C)C[C@@H]1CCn2cc(c3ccccc32)C2=C(C(=O)NC2=O)c2cn(c3ccccc23)CCO1 [Ruboxistaurin] + Cc1cc(Nc2cc(N3CCN(C)CC3)nc(Sc3ccc(NC(=O)C4CC4)cc3)n2)n[nH]1 [Tozasertib] (partner 0.1 µM)
How it was run: as §1

[5] = compound: CN(C)C[C@@H]1CCn2cc(c3ccccc32)C2=C(C(=O)NC2=O)c2cn(c3ccccc23)CCO1 [Ruboxistaurin] + O=C(c1cc(Cc2n[nH]c(=O)c3ccccc23)ccc1F)N1CCN(C(=O)C2CC2)CC1 [Olaparib] (partner 8 µM)
How it was run: as §1

Cell Line	relative viability ([1]; first compound 0.08 µM)	relative viability ([1]; first compound 0.8 µM)	relative viability ([1]; first compound 2.53 µM)	relative viability ([1]; first compound 8 µM)	relative viability ([2]; first compound 0.08 µM)	relative viability ([2]; first compound 0.8 µM)	relative viability ([2]; first compound 2.53 µM)	relative viability ([2]; first compound 8 µM)	relative viability ([3]; first compound 0.08 µM)	relative viability ([3]; first compound 0.8 µM)	relative viability ([3]; first compound 2.53 µM)	relative viability ([3]; first compound 8 µM)	relative viability ([4]; first compound 0.08 µM)	relative viability ([4]; first compound 0.8 µM)	relative viability ([4]; first compound 2.53 µM)	relative viability ([4]; first compound 8 µM)	relative viability ([5]; first compound 0.08 µM)	relative viability ([5]; first compound 0.8 µM)	relative viability ([5]; first compound 2.53 µM)	relative viability ([5]; first compound 8 µM)
201T	0.739	0.705	0.764	0.747	1.21	1.18	1.24	1.25	0.694	0.723	0.675	0.59	0.993	0.815	0.976	0.825	0.821	0.837	0.852	0.909
A549					1.23	1.18	1.16	0.99									0.27	0.273	0.415	0.381
A-427	0.88	0.692	0.752	0.548	0.947	0.816	0.831	0.752	0.506	0.406	0.458	0.343	0.19	0.184	0.232	0.157	0.728	0.672	0.558	0.534
ABC-1									0.692	0.386	0.481	0.331	0.178	0.163	0.184	0.22	1.27	0.81	1.03	1.15
BEN	1.07	0.976	1.01	0.895	0.0424	0.0646	0.0707	0.114	0.347	0.31	0.262	0.286	0.492	0.45	0.498	0.483	1.31	0.903	1.34	0.888
CAL-12T	0.303	0.347	0.323	0.399	1.22	1.28	1.31	1.26	0.797	0.449	0.69	0.391	0.371	0.292	0.301	0.211	0.749	0.704	0.901	0.751
COR-L23	0.749	0.581	0.571	0.59	1.16	1.01	1.03	0.998	0.759	0.637	0.712	0.391	0.221	0.167	0.202	0.153	0.409	0.377	0.387	0.326
COR-L 105	0.43	0.364	0.463	0.441	0.741	0.64	0.776	0.807	0.881	0.565	0.62	0.443	0.385	0.367	0.304	0.254	0.802	0.597	0.707	0.677
ChaGo-K-1	0.972	0.814	0.941	0.956	1.38	1.08	0.925	0.703	0.658	0.572	0.618	0.449	0.225	0.242	0.231	0.211	0.431	0.39	0.433	0.444
EKVX	0.359	0.287	0.336	0.281	0.981	0.903	1.03	0.882	0.734	0.751	0.709	0.641	0.411	0.401	0.415	0.367	0.923	0.692	0.929	0.861
EMC-BAC-2	0.94	0.841	0.775	0.721	1.28	1.08	1.11	1.05	0.399	0.343	0.362	0.258	0.29	0.254	0.272	0.17	0.509	0.453	0.463	0.481
EPLC-272H	0.347	0.228	0.27	0.257	1.28	0.96	1.41	1.18	0.308	0.266	0.298	0.249	0.205	0.247	0.253	0.247	0.846	0.71	0.918	0.437
H3255	0.635	0.479	0.644	0.536	0.548	0.438	0.519	0.478	0.686	0.501	0.633	0.577	0.658	0.603	0.714	0.836	0.613	0.574	0.592	0.655
HARA	0.674	0.636	0.653	0.684	1.2	1.16	1.14	1.14	0.677	0.356	0.488	0.305	0.0939	0.101	0.12	0.102	1.01	0.895	0.819	0.538
HCC-15	0.401	0.388	0.409	0.417	0.724	0.64	0.71	0.62	0.701	0.617	0.623	0.582	0.461	0.255	0.297	0.188	0.792	0.651	0.777	0.867
HCC-44	1.02	1	1.06	1.21	1.05	0.883	1.02	0.971	0.576	0.403	0.481	0.59	1.05	0.919	1.1	1.09	0.978	0.942	0.983	1.04
HCC-78	0.886	0.711	0.738	0.912	0.802	0.686	0.812	0.793	0.346	0.335	0.316	0.3	0.368	0.352	0.321	0.393	0.821	0.762	0.935	0.746
HCC-366	0.393	0.331	0.349	0.321	1.05	0.81	1.16	0.995	0.965	0.675	0.869	0.411	0.0941	0.0617	0.084	0.0522	0.4	0.364	0.372	0.269

Cell Line	relative viability ([1]; first compound 0.08 µM)	relative viability ([1]; first compound 0.8 µM)	relative viability ([1]; first compound 2.53 µM)	relative viability ([1]; first compound 8 µM)	relative viability ([2]; first compound 0.08 µM)	relative viability ([2]; first compound 0.8 µM)	relative viability ([2]; first compound 2.53 µM)	relative viability ([2]; first compound 8 µM)	relative viability ([3]; first compound 0.08 µM)	relative viability ([3]; first compound 0.8 µM)	relative viability ([3]; first compound 2.53 µM)	relative viability ([3]; first compound 8 µM)	relative viability ([4]; first compound 0.08 µM)	relative viability ([4]; first compound 0.8 µM)	relative viability ([4]; first compound 2.53 µM)	relative viability ([4]; first compound 8 µM)	relative viability ([5]; first compound 0.08 µM)	relative viability ([5]; first compound 0.8 µM)	relative viability ([5]; first compound 2.53 µM)	relative viability ([5]; first compound 8 µM)
HCC-827	0.555	0.499	0.517	0.533	1.05	1.05	1.01	1.04	0.889	0.82	0.772	0.605	0.43	0.393	0.423	0.423	0.655	0.647	0.695	0.624
HOP-62	0.401	0.33	0.361	0.361	1.15	1	1.12	1.35	0.884	0.783	0.826	0.753	0.362	0.299	0.352	0.424	0.499	0.443	0.541	0.611
IA-LM					0.852	0.722	0.862	0.987									0.871	0.836	0.842	0.912
LC-2-ad	0.953	0.877	0.928	0.984	0.474	0.395	0.557	0.345	0.935	0.842	0.86	0.781	0.55	0.45	0.476	0.475	0.711	0.626	0.697	0.752
LCLC-97TM1	0.207	0.141	0.203	0.154	0.672		0.332	0.411	0.508	0.547	0.482	0.243	0.194	0.168	0.242	0.159	0.355	0.334	0.352	0.341
LCLC-103H	0.703	0.621	0.633	0.678					0.46	0.384	0.407	0.357	0.52	0.326	0.519	0.472	0.735	0.69	0.729	0.676
LK-2	0.65	0.933	0.85	0.589	0.893	0.792	0.875	0.674	0.224	0.222	0.158	0.158	0.174	0.152	0.179	0.162	0.741	0.687	0.649	0.505
LOU-NH91	0.802	0.751	0.807	0.773	0.846	0.58	0.738	0.692	0.748	0.629	0.663	0.676	0.744	0.509	0.674	0.76	0.926	0.87	0.941	0.949
LU99A	0.492	0.509	0.508	0.472	0.883	0.71	0.798	0.716	0.285	0.271	0.266	0.258	0.256	0.205	0.221	0.229	0.27	0.259	0.253	0.218
NCI-H358	0.159	0.116	0.125	0.112					0.95	0.642	0.787	0.471	0.116	0.0986	0.118	0.0882	0.748	0.587	0.604	0.458
NCI-H522	0.767	0.586	0.754	0.764					0.741	0.783	0.909	0.689	0.502	0.502	0.563	0.524	0.71	0.676	0.637	0.728
NCI-H650	1.1	0.914	1.01	0.952					0.662	0.49	0.584	0.523	0.81	0.685	0.82	0.863	0.462	0.352	0.47	0.425
NCI-H661	0.667	0.528	0.681	0.703					0.78	0.599	0.695	0.6	0.366	0.332	0.372	0.344	0.844	0.717	0.795	0.81
NCI-H1563									0.796	0.748	0.694	0.66								
NCI-H1703					1.14	0.992	0.991	0.525									0.447	0.411	0.622	0.305
NCI-H1792	0.646	0.336	0.446	0.41	0.701	0.605	0.637	0.68	0.798	0.605	0.736	0.625					0.517	0.453	0.287	0.414
SW 900	0.785	0.972	0.912	0.693					0.555	0.5	0.593	0.422	0.647	0.499	0.656	0.452	0.891	0.829	1.03	0.964
